Tests used:
platelets = assay: Platelet intra-cellular calcium concentration (Indo-1-AM); type: cell-based, human; conditions: TRAP-6 10 μM, vs solvent
Experimental: Freshly-isolated human platelets were incubated with either control DMSO or the indicated WASp-binding SMCs, specifically, SMC #6 (FIG. 11A), SMC #30 (FIG. 11B), SMC #33 (FIG. 11C) and SMC #34 (FIG. 11D). Platelets were stimulated with TRAP-6 and calcium levels were measured by spectrofluorometer, as described in Experimental procedures. Data are representative of three independent experiments.
Cells were incubated with 5 μM Indo-1-acetoxymethylester (Indo-1-AM, Teflabs) in Tyrode's buffer at 37° C. for 20 min. The cells were washed once, resuspended in Tyrode's buffer containing 10 mM HEPES and maintained at room temperature for 20 min. The cells were incubated at 37° C. for 5 min before measurements and then stimulated with 10 μM TRAP-6. The Ca^2+ influx was measured by spectrofluorometer using the Synergy 4 Microplate Reader (Bio Tek).
However, following receptor-mediated stimulation, platelets dramatically elevate their intra-cellular calcium concentrations, which in turn serve as signaling cues that evoke platelet effector functions, including platelet spreading, adhesion and aggregation (Varga-Sabo et al, 2009). Therefore, the ability of WASp-protecting SMCs to upregulate intra-cellular calcium accumulation in activated platelets was next tested. Freshly-isolated human platelets were incubated with SMC #6, #30, #33 and #34 or with the solvent (negative control). Following incubation, platelets were stimulated with thrombin receptor activator peptide TRAP-6 (10 μM) and calcium levels were measured by spectrofluorometer, using Indo-1-AM-based calcium assay as described in Experimental procedures.

Jurkat T cells = assay: Lymphocyte migration on ICAM-1/SDF-1α-coated cover glasses; type: cell-based, human; conditions: tracked over 20 min, mean ± SE
Experimental: Jurkat T cells were pretreated with DMSO or the indicated WASp-binding SMCs, and cell migration on ICAM-1/SDF-1α-coated cover glasses was tracked over a 20-min period, as described in Experimental procedures. Each line in FIG. 10A represents one cell. The tracks of five representative cells from each treatment are presented.
Error bars represent the SE from the mean. P values versus DMSO-treated control cells are presented and were calculated by two-tailed Student's t-test.
Approximately 1×10^5 lymphocytes were seeded over chambered coverslips (LabTek) pre-coated with 6 μg/ml ICAM-1 and 2 μg/ml SDF-1α. Cells were incubated at 37° C., 5% CO2 and DIC images were acquired with the Zeiss Observer Z1 inverted microscope every 5 s for 20 min under a 20× objective lens using Zen software. The random movement (Displacement and velocity) of the cells was automatically tracked and analyzed using TrackMate plugin of ImageJ software. An individual trace was assigned to each of the analyzed cells.
A common theme of active lymphocytes is their high migratory ability. This enables them to move within tissues and reach and engage target cells (Burkhardt et al, 2008). Because WASp plays a role in cellular motility, the ability of WASp-binding SMCs to effectively enhance the migration of lymphocytes was tested. The random movement of SMC-treated or control cells was automatically tracked and analyzed using live microscopy, as described in Experimental procedures.

WIP-WASp interaction = target: T1, WIP-WASp interaction (Homo sapiens, UniProt P42768, K230R/R34Q); assay: FRET analysis of WIP-WASp interaction in activated T-cells expressing CFP-WASp and YFP-WIP; type: cell-based; conditions: anti-CD3 stimulatory coverslips, fixed after 5 min; mean ± SE
T1 construct: expressed in transfected cells
Experimental: FIG. 13A: Jurkat T cells stably expressing CFP-WASp and YFP-WIP were treated with WASp-binding SMC #6, SMC #30, SMC #33, SMC #34 or control. The cells were then plated on stimulatory coverslips (coated with an anti-CD3 antibody), and fixed after 5 min. Cells were imaged by confocal microscope, and FRET efficiency was measured by the donor-sensitized acceptor emission technology (see Experimental procedures for details).
FIG. 13B: graph summarizing the percentage FRET efficiency in cells plated on the stimulatory coverslips, with the indicated treatment. Data are from four independent experiments. Error bars represent the SE from the mean. P values were calculated by two-tailed Student's t-test.
Spreading assays were performed as previously described (Fried et al, 2014; Barda-Saad 2005). Briefly, T cells (2×10^6 cells/ml) were seeded on the bottom of chambered cover glasses (LabTek) that were pre-coated with anti-CD3 stimulatory monoclonal antibodies (10 μg/ml). The cells were incubated in imaging buffer [RPMI without phenol red containing 10% fetal calf serum (FCS) and 25 mM HEPES] at 37° C., 5% CO2, for the times indicated in the figure legends. Cells were fixed for 25 min with 4% paraformaldehyde in phosphate-buffered saline (PBS) and then were washed three times with PBS.
Double-color FRET was performed as described previously (Barda-Saad et al, 2005; Pauker, 2011, Pauker, 2012). […] The non-FRET components were calculated and removed with calibration curves derived from images of single-labeled cells containing CFP or YFP, as previously described (Barda-Saad et al, 2005). […] Bleed-through components were calculated as a function of the intensity of the expressed fluorescent proteins with data gathered from single-labeled cell lines. By using the intensity measured pixel by pixel through the different filter sets, as well as cross-talk elements that were isolated from the control, single-labeled cells, the measured FRET was corrected and the actual FRET efficiency at every pixel was determined. The relative FRET efficiency (FRETeff) was calculated on a pixel-by-pixel basis with the following equation: FRETeff=FRETcorr/(FRETcorr+donor)×100%, where FRETcorr is the pixel intensity in the corrected FRET image, and donor is the intensity of the corresponding pixel in the appropriate donor channel image. To increase the reliability of the calculations and to prevent low-level noise from distorting the calculated ratio, the inventors excluded pixels below 50 intensity units, as well as saturated pixels from the calculations, and set their intensities to zero. […] The FRET efficiency in the negative control system was measured and calculated in the same manner as that in the main experiment. […]

PBMCs = assay: Lymphocyte activation in PBMCs (CD69 and activated LFA-1, flow cytometry); type: cell-based, human; conditions: PBMCs stimulated with PMA and Ionomycin, vs control
Experimental: Figures show 1×10^6 PBMC cells/ml stimulated with PMA and Ionomycin that were treated with DMSO or WASp-binding SMCs. After incubation, the cells were stained with PE-Cy5™-conjugated mouse anti-human CD69 and lymphocyte activation was measured by flow-cytometry as described in the Experimental procedures. Histograms of DMSO versus SMC #6 (FIG. 8A), SMC #30 (FIG. 8B), SMC #33 (FIG. 8C), and SMC #34 (FIG. 8D) are presented and represent three independent experiments.
After incubation, the cells were stained with anti-activated LFA-1 antibody (KIM127), followed by staining with Alexa488-Fluor goat anti-mouse IgG1 secondary antibody, and lymphocyte activation was measured by flow-cytometry as described in the Experimental procedures. Histogram of negative control versus SMC #6 is presented.
PBMCs or Jurkat cells (about 3×10^5 cells) were incubated for 4 h, at 37° C. with 50 ng/ml PMA and 250 ng/ml lonomycin, or 40 ng/ml PMA and 6 μM Ionomycin, respectively, or left untreated. After incubation, the cells were collected and stained with 1 μg/ml anti-active human LFA-1 antibody (purified from KIM127 hybridoma sup, ATCC Cat #: CRL-2838, Sigma) for 30 min in 37° C., followed by staining with Alexa488-Fluor goat anti-mouse IgG1 secondary antibody (Molecular Probes, Cat #: A-21121), 30 min on ice. Cells were then co-stained with PE-Cy5™-conjugated mouse anti-human CD69 (BD Pharmingen, Cat #: 555532) to measure lymphocyte activation.
Lymphocyte activation is a hallmark of a normal immune response. To test whether treatment with WASp-binding SMCs could upregulate lymphocyte activation, freshly-isolated PBMCs were incubated with SMCs or control (solvent only) and stimulated with PMA and lonomycin. The cells were then stained with two different antibodies, which recognize two lymphocyte activation markers, CD69 and an epitope exposed at the active conformation of the integrin LFA-1 (KIM127). Both were detected by flow-cytometry.

human WASp = target: T2, human WASp (Homo sapiens, UniProt P42768, K230R/R34Q); assay: MicroScale Thermophoresis (MST) binding, YFP-WASp in HEK 293T cell lysate
T2 construct: expressed in transfected cells; host or cells: HEK 293T, transient transfection; unpurified cell lysate
T2 sequence (P42768 1-502 R34Q/K230R): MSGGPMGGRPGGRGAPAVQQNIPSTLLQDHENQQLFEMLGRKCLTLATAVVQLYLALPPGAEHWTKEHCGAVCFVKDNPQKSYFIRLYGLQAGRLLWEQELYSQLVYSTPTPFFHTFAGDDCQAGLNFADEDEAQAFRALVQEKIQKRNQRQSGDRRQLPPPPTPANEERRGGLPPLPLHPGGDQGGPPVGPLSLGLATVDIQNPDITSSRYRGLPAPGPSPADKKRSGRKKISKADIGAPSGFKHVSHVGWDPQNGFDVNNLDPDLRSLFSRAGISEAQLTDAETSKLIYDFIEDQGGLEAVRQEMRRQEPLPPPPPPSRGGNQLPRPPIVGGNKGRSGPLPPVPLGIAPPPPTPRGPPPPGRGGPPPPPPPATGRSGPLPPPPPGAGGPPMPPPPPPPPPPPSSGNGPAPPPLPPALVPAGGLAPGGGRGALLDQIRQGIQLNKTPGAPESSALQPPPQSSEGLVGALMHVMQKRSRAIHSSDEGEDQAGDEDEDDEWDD
Experimental: Diluted cell lysates of YFP-WASp/N-WASp/WAVE2-expressing HEK 293T cells were incubated with serially-diluted (100 μM-3 nM) SMCs. The mixed lysates and SMCs were then loaded into standard-treated Monolith™ capillaries and the fluorescence of the samples was measured by the Monolith NT.115 instrument at 60% MST power. Binding curves of WASp with SMC #6 (FIG. 3A), SMC #30 (FIG. 3B), SMC #33 (FIG. 3C), SMC #34 (FIG. 3D) and Y-27632 (FIG. 3E) or of N-WASp (FIG. 3F) or WAVE2 (FIG. 3G) with SMC #34 were generated by the NanoTemper Analysis 2.231 software. Normalized fluorescence (hot fluorescence/initial fluorescence) is plotted as a function of SMC concentration. […]
YFP-tagged WASp was obtained from cell lysates of Human Embryonic Kidney (HEK) 293T, transiently transfected with YFP-WASp/WAVE2/N-WASp by DNA-calcium phosphate co-precipitation as previously described (Reicher et al, 2012). […] After loading into the instrument (Monolith NT.115, NanoTemper), the samples were measured by standard protocols at 60% MST power. […] KD values were determined using the NanoTemper analysis software (NT Analysis 1.5.37 or 2.2.31).
Following this in silico screening, the inventors identified eight SMCs (#6, #23, #24, #25, #30, #32, #33, #34, see Table 1). […] The SMCs that specifically bind the degradation pocket of WASp were further evaluated by the inventors.

T1 sequence (O43516 whole entry partner, one chain of several): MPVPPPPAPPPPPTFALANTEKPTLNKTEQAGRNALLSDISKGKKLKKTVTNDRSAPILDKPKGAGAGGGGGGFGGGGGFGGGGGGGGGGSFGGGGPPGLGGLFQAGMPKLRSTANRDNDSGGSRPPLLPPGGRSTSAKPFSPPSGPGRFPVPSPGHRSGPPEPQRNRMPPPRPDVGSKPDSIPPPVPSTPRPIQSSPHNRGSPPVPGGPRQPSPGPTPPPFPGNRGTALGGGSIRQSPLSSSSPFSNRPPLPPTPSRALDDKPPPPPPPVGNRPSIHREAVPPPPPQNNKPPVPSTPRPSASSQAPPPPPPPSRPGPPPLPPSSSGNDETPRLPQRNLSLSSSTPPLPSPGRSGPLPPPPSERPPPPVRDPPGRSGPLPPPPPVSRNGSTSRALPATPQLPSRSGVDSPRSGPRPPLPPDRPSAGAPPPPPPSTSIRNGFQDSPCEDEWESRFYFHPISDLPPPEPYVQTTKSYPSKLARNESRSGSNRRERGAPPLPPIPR

average FRET efficiency (WIP-WASp interaction)	binding to WASp (human WASp)	SMILES	intra-cellular calcium concentration in activated platelets (platelets)	mean cell displacement (Jurkat T cells)	lymphocyte activation (CD69, activated LFA-1) (PBMCs)
24.4±1.4%	–	COC(=O)c1ccc2c(=O)n(Cc3ccc(C(=O)NC4CCCC4)cc3)c(=S)[nH]c2c1 [SMC #30, 3-(4-Cyclopentylcarbamoyl-benzyl)-4-oxo-2-thioxo-1,2,3,4-tetrahydro-quinazoline-7-carboxylic acid methyl ester]	dramatically enhanced	41.07±4.69	upregulation of lymphocyte activation
–	did not show binding	C[C@@H](N)[C@H]1CC[C@H](C(=O)Nc2ccncc2)CC1 [Y-27632]	–	–	–

From patent US12150940B2, “WASp-protecting small molecules, compositions, methods and uses thereof in the treatment of innate and acquired immune-related disorders or conditions” (BAR ILAN UNIVERSITY, priority 2016, dated 2024)
